Where “and” joins values, the source holds several entries; their conditions need not be identical. Equal entries are not always repeated. Entries after “also recorded” stand apart in the source; their conditions may differ. Where two headings read alike, the source gives them in different places.
How the values were obtained:
[1] = tested on: malignant squamous cell cancer (SCCA-HM); test: BDP-DNP on squamous cell cancer with T-lymphocytes in tissue culture; assay type: cell-based
From the text: FIG. 15 describes the impact of BDP-DNP on cell growth for malignant squamous cell cancer (SCCA-HM) growing in culture (pre-post Rx). On the left are large lacey star shaped squamous 15 cancer cells associated with small white clumps of naïve T-lymphocytes. […] The dark background seen on the right is due to the color of the drug. All the fluffy white cells are large clumps of activated lymphocytes.

lymphocytes in culture [2] = test: Lymphocyte blastogenesis, blasts per high powered field; assay type: cell-based; conditions: number of blasts per high powered field
Procedure: (§1) Once candidates have been selected as potential resonance modulators, they can be easily assayed to determine whether they induce lymphocyte blastogenesis and activate lymphocytes. Such an assay is found in Morgan et al., Anticancer Research 13:1763-1768 (1993), which is incorporated by reference. See also Janossy et al., Clin. Exp. Immunol. 14:581-596 (1973). Briefly, uptake of [^3]thymidine was measured for lymphocytes in culture. Lymphocytes were cultured in RPMI-1640 tissue culture medium supplemented with 10% fetal bovine serum (FBS). Following stimulation with the resonance modulator, tritiated thymidine (2-20 μCi/ml, specific activity 2 Ci/mmol) was added to the cells and incubated with them. The uptake of [^3]thymidine was stopped by the addition of cold 10% trichloroacetic acid after a selected period of time, and the radioactivity of the samples measured in a scintillation counter. The % lymphoblast was determined by counting the number of blasts per high powered field (hpf) while % activation was determined by uptake of the tritiated thymidine. The increase voltage was measured with an oscilloscope as in Example 7.

lymphocytes in culture [3] = test: Lymphocyte activation, tritiated thymidine uptake; assay type: cell-based; conditions: uptake of tritiated thymidine
Procedure: as §1

PTP CD45 receptor = biological target: T1, PTP CD45 receptor (Homo sapiens, UniProt P08575); test: Binding to and up-regulation of PTP CD45 receptor
T1 sequence (P08575 26-1306): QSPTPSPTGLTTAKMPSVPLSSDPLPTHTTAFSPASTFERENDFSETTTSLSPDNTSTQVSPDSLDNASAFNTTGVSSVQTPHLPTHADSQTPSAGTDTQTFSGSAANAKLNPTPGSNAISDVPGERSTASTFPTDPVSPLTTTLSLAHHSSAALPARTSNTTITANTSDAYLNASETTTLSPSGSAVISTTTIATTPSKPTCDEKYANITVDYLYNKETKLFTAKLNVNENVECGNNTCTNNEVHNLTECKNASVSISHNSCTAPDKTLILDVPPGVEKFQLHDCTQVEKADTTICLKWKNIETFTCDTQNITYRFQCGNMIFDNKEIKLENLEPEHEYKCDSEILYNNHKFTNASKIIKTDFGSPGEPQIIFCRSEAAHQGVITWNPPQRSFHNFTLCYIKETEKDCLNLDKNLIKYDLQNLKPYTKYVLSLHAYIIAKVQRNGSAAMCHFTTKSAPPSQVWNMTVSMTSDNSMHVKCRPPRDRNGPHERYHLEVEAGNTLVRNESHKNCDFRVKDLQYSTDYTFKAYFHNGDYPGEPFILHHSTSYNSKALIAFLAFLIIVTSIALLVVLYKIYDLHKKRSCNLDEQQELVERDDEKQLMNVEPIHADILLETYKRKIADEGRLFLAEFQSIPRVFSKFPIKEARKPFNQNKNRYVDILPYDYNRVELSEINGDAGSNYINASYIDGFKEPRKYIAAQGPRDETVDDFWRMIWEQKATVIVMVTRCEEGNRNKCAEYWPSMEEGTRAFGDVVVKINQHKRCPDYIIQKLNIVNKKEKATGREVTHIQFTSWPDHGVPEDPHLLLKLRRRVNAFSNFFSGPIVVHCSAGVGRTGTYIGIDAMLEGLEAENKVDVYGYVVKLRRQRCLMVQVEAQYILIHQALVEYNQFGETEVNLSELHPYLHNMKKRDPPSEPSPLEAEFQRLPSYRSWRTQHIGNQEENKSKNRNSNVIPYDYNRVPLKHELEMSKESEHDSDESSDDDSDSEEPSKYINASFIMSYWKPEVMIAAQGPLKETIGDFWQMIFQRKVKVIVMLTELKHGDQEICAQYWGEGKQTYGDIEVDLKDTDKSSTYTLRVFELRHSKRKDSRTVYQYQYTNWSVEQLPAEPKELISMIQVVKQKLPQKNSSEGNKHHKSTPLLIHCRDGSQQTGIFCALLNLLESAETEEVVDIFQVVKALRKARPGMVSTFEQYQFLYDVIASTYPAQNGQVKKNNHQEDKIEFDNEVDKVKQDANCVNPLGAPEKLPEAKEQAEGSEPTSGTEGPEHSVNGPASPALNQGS

[4] = tested on: vaginal cancer / cervical cancer; test: A-007 0.25% gel intravaginally, cancer response and toxicity; conditions: per patient
[5] = tested on: Cutaneous Metastases (cancer lesions); test: Phase I/II trials, topical A-007 0.25% gel on cutaneous metastases; assay type: in vivo, human
HeLa cancer cells (HPV+) = test: HeLa cancer cells incubated with A-007 crystals; assay type: cell-based; conditions: incubated with crystals for 24 hours
From the text: Then through cell membrane chemical interphase and modulation of the PTP receptors the cells down regulate, darken with pyknotic changes associated with DNA agglutination resulting in death (lower clumped dark staining cells). The attraction that the crystals have for the cells is associated with intramolecular resonance and associated magnetic patterns described in FIGS. 3 and 4.

[6] = tested on: naive human lymphocytes (obtained from peripheral blood); test: Aggregation of naive lymphocytes around an A-007 crystal in tissue culture; assay type: cell-based; conditions: 0.5 mg crystals in RPMI, one hour
From the text: The ability of an agent to induce aggregation of naïve lymphocytes in culture around a test agent is another factor to be considered in determining whether the agent is a resonance modulator suitable for use in the methods disclosed herein. The ability to induce aggregation within one hour is a particularly strong indication that the compound is suitable for further investigation. “Aggregation” refers to a substantial increase in the number of lymphocytes, such as an increase visible by microscopy, as in FIG. 5.

[7] = tested on: T-lymphocytes (CD markers); test: A-007 0.25% gel intra-anally, T-cell profile (tissue/blood); assay type: in vivo, human; parameters: key: NC: no change; conditions: intra-anal gel
[8] = tested on: benign fibroblasts or healthy epithelial cells; test: A-007 induced cell death in non-HPV cells; assay type: cell-based; conditions: cells not containing or transformed by HPV
CD45+ receptor = CD45+ receptor modulation in lymphocytes and dendritic cells; assay type: cell-based, human
From the text: CD45+ is expressed on dendritic cells, lymphocytes, monocytes, and leukocytes, as well as some neoplastic cells, as a protein tyrosine phosphatase (TP), which together with other members of the PTPs, are responsible for […] tyrosine residues. Blockade of the CD45+ receptor sites with anti-CD45 antibodies inhibits T-cell activation and prevents mitogen (lectin) activation of naïve T-cells. CD45+ receptor surfaces contain arginine, serine/threonine and cysteine moieties, which can bind to and/or transfer natural ligands to the surface of APCs, as well as hydrolyze tyrosyl phosphates. […] Different resonance states of A-007 are capable of interacting with different immune cells.

[9] = tested on: cervical early cancer-in-situ; test: A-007 gel in cervical cancer-in-situ (single patient); assay type: in vivo, human; conditions: 0.25% gel (2 g) daily for 5 days
From the text: The responses are associated with increased organization of T-lymphocyte patterns and disappearance of cancer cells.

HPV = test: A-007 0.25% gel intravaginally, HPV response (titers); assay type: in vivo, Humans; parameters: key: NC: no change; conditions: per patient, intravaginal gel
[10] = tested on: anal squamous cell cancer; test: A-007 0.25% gel intra-anally, cancer response and toxicity; assay type: in vivo, human; conditions: per patient
lymphoma = test: A-007 gel on the skin of a patient with lymphoma; assay type: in vivo, human; conditions: 0.25% gel (0.5 g)
[11] = Absorption and disposition of A-007 (blood detection, skin absorption, excretion)
[12] = as seen by crystallography (Klein et al. 1993); cited from earlier work
[13] = tested on: T-lymphocytes (CD markers); test: A-007 0.25% gel intravaginally, T-cell profile (tissue/blood); assay type: in vivo, Humans; parameters: key: NC: no change; conditions: per patient; intravaginal gel
[14] = tested on: T-lymphocytes (CD4+, CD3+, CD8+, CD45+) and CD11c+ dendritic cells in skin; test: Histochemical assays of biopsies of human skin topically treated with A-007; assay type: in vivo
[15] = 0.4 mcg/mL, 24 hours incubation
[16] = 53 people treated with topical 0.25% gel
[17] = Breast, 0.25% gel topically twice daily

With `O=[N+]([O-])c1ccc(NN=C2C(=Cc3ccccc3)CCCC2=Cc2ccccc2)c([N+](=O)[O-])c1` [Compound 38, 2,6-Dibenzylidenecyclohexanone-2,4-dinitrophenylhydrazone] the “cancer cells after treatment” value [1, 15] was “No cancer cells are detected”, the “effect on naïve T-lymphocytes in the culture” value [1, 15] was “impressive stimulation” and the “immune modulating anticancer activities vs. A-007” value ([1]; relative to A-007) was 100 fold. For the same compound, the “% Lymphoblast” value (lymphocytes in culture [2]) was 100%, the “% Activation” value (lymphocytes in culture [3]) was 100% and the “binding affinities to PTP CD45 receptor” value (PTP CD45 receptor) was “improved binding affinities”. The “effect on PTP CD45 receptor” value (PTP CD45 receptor) was “upregulates the receptor” and the “binding affinities to PTP CD45 receptor” value (PTP CD45 receptor; listed as structure 38) was “excellent binding affinities”.
In the case of `O=[N+]([O-])c1ccc(NN=C(c2ccc(O)cc2)c2ccc(O)cc2)c([N+](=O)[O-])c1` [Compound A-007, 4,4′-dihydroxybenzophenone-2,4-dinitrophenylhydrazone], the “Response (Cancer)” value ([4]; 2 g gel intravaginally daily for five days) is reported as 75% and >75%, the Toxicity ([4]; intravaginal gel) is reported as “None” and the “complete responses (number)” value [5, 16] is reported as “ten”. The objective remissions [5, 16] was 37%, the Duration ([5]; Angiosarcoma) was 0 wks and the “Response: number NR” value ([5]; Angiosarcoma) was 2 NR. For the same compound, the Toxicities ([5]; Angiosarcoma) was 0, the Duration ([5]; Anogenital) was 1.8+ yrs and the “Response: number CR” value ([5]; Anogenital) was 5. The “Response: number PR” value ([5]; Anogenital) was 2, the Toxicities ([5]; Anogenital) was 0 and the “Toxicities (number, skin, mild)” value ([5]; Breast) was 7 skin (mild). The “Response: number CR” value [5, 17] was 5, the “Response: number PR” value [5, 17] was 7 and the “Response: number stable” value [5, 17] was 6 stable. The Duration ([5]; H/N (Sq. Cell)) was 0 wks, the Toxicities ([5]; H/N (Sq. Cell)) was 0 and the Duration ([5]; KS (Kaposi's sarcoma)) was 11 wks. For the same compound, the “Response: number NR” value ([5]; KS (Kaposi's sarcoma)) was 2 PR, 2 NR, the “Response: number PR” value ([5]; KS (Kaposi's sarcoma)) was 2 PR, 2 NR and the Toxicities ([5]; KS (Kaposi's sarcoma)) was 0. The Duration ([5]; Melanoma) was 3-15 wks, the “Response: number NR” value ([5]; Melanoma) was 3 and the “Toxicities (number, skin, mild)” value ([5]; Melanoma) was 2 Skin (mild). For the same compound, the “Response: number PR” value ([5]; Melanoma, 0.25% gel topically twice daily) was 1, the Duration ([5]; NHL) was 3.5 yrs and the Toxicities ([5]; NHL) was 0. For the same compound, the “Response: number PR” value ([5]; NHL (non-Hodgkins' lymphoma)) was 1 PR, the “local or systemic toxicity” value ([5]; topical A-007) was “substantial absence of A-007 induced local or systemic toxicity” and the “effect on HeLa cancer cells” value (HeLa cancer cells (HPV+)) was “undergo necrobiosis and death; also recorded: undergo pyknosis (DNA agglutination and necrosis) and die”. For the same compound, the “aggregation of lymphocytes around crystal” value [6] was “lymphocytes and dendritic cells aggregate around the crystal or pellet”, the “T-Cell Profile (Tissue/Blood) All others” value ([7]; patient A-3) was “NC” and the “T-Cell Profile (Tissue/Blood) CD4/8” value ([7]; patient A-5) was “NC”. The “T-Cell Profile (Tissue/Blood) CD45+” value ([7]; per patient) was “(NC)”, the “% Lymphoblast” value (lymphocytes in culture [2]) was 75% and the “A-007 induced cell death” value [8] was “not observed”. The “inhibition of CD45+” value (CD45+ receptor) was “does not inhibit or block CD45+”, the “CD45+ and CD11c+ receptors in human peripheral dendritic cells” value (CD45+ receptor; A-007-activated DCs) was “up-regulating both CD45+ and CD11c+ receptors” and the duration of cure [9] was “over one year”. For the same compound, the “response of cervical carcinoma-in-situ (biopsy)” value [9] was “disappearance of the cancer cells; also recorded: loss of malignant changes”, the “HPV (Response), changes in HP titers” value (HPV) was “+(50%)” and the “HPV (Response), changes in HP titers” value (HPV; CR as in Table 1) was “+(NC)”. For the same compound, the “Response (Cancer)” value ([10]; gel intra-anally daily for five days) was 0% (4×) and 100%, the Toxicity ([10]; intra-anal gel) was “None” and the “peripheral lymphocyte profile (total lymphocyte count)” value (lymphoma) was “improvement”. The excretion ([11]; administered to a human subject) was “excreted substantially unchanged”, the “absorption from/through the skin” value ([11]; applied to skin, animal and human studies) was “not absorbed from the skin; also recorded: substantially not absorbed through the skin” and the “absorption into the blood” value ([11]; in vivo) was “not absorbed into the blood”. For the same compound, the “detection of A-007 in blood” value ([11]; subjects treated with topical A-007) was “not been detected in the blood”, the hydrogen bond donors [12] was “greater than 5” and the “T-Cell Profile (Tissue/Blood) CD8/4+” value [13] was “NC”. For the same compound, the “T-lymphocyte infiltrates (CD4+, CD3+, CD8+, CD45+) in treated skin” value ([14]; biopsies during topical treatment) was “increased infiltrates”, the “CD11c+ dendritic cell infiltrates in treated skin” value ([14]; treated areas) was “Increased skin infiltrates” and the “% Activation” value (lymphocytes in culture [3]) was 100%.
With `O=C1c2ccccc2C(=NNc2ccc([N+](=O)[O-])cc2[N+](=O)[O-])c2ccc(O)c(O)c21` [DNPA, 10-[(2,4-dinitrophenyl)hydrazono]-1,2-dihydroxy-10H-anthracen-9-one] the “% Lymphoblast” value (lymphocytes in culture [2]) was 50% and the “% Activation” value (lymphocytes in culture [3]) was 75%.
With `CC(C)C(=O)Nc1ccc([N+](=O)[O-])c(C(F)(F)F)c1` [Fludamide, reference compound] the “% Lymphoblast” value (lymphocytes in culture [2]) was 0% and the “% Activation” value (lymphocytes in culture [3]) was 0%.
